# Reference: ChEMBL document CHEMBL1201862, “PubChem BioAssay data set” (2004)
#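 Grown in 96-well plates, cells were treated for 48 hours with each compound at five concentrations. Insufficient inhibition: endpoint recorded as highest concentration tested. GI50: concentration for 50% inhibition of growth.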 Activity calls are given as the source filed them. Cut-off read from the data, not from the text of the source: active = GI50 up to about 1.1 µM and inactive = higher.
# Assays:
# Assay in all cases: NCI-60 cell line screen, 48 h
# NCI-H23 = system: NCI-H23
# A549 = system: A549
# CCRF-CEM = system: CCRF-CEM
# K562 = system: K562
# HL-60 = system: HL-60
# UACC-257 = system: UACC-257
# SK-OV-3 = system: SK-OV-3
# T47D = system: T47D
# SW-620 = system: SW-620
# OVCAR-8 = system: OVCAR-8
# MCF7 = system: MCF7
# NCI-H460 = system: NCI-H460
# SF-539 = system: SF-539
# LOX IMVI = system: LOX IMVI
# Hs-578T = system: Hs-578T
# HCT-116 = system: HCT-116
# OVCAR-3 = system: OVCAR-3
# SR = system: SR
# 786-0 = system: 786-0
# MOLT-4 = system: MOLT-4
# SK-MEL-5 = system: SK-MEL-5
# M14 = system: M14
# KM12 = system: KM12
# RPMI-8226 = system: RPMI-8226
# A498 = system: A498
# SF-295 = system: SF-295
# CAKI-1 = system: CAKI-1
# MDA-N = system: MDA-N
# SNB-19 = system: SNB-19
# SK-MEL-28 = system: SK-MEL-28
# U-251 = system: U-251
# HOP-62 = system: HOP-62
# OVCAR-5 = system: OVCAR-5
# IGROV-1 = system: IGROV-1
# SN12C = system: SN12C
# HCC 2998 = system: HCC 2998
# TK-10 = system: TK-10
# DU-145 = system: DU-145
# HOP-92 = system: HOP-92
# MDA-MB-435 = system: MDA-MB-435
# PC-3 = system: PC-3
# OVCAR-4 = system: OVCAR-4
# NCI-H226 = system: NCI-H226
# NCI-H522 = system: NCI-H522
# EKVX = system: EKVX
# SF-268 = system: SF-268
# Malme-3M = system: Malme-3M
# UACC-62 = system: UACC-62
# SK-MEL-2 = system: SK-MEL-2
# ACHN = system: ACHN
# NCI/ADR-RES = system: NCI/ADR-RES
# UO-31 = system: UO-31
# RXF 393 = system: RXF 393
# MDA-MB-231 = system: MDA-MB-231
# BT-549 = system: BT-549
# HCT-15 = system: HCT-15
# SNB-75 = system: SNB-75
# HT-29 = system: HT-29
# COLO 205 = system: COLO 205
smiles,measurement,setting,value
CCOC(=O)c1sc2nc(SC)nc3c2c1NCN3c1ccc2c(c1)OCCCO2,GI50,NCI-H23,70.8 µM (inactive)
same,GI50,A549,9.48 µM (inactive)
same,GI50,CCRF-CEM,> 100 µM (inactive)
same,GI50,K562,> 100 µM (inactive)
same,GI50,HL-60,> 100 µM (inactive)
same,GI50,UACC-257,> 100 µM (inactive)
same,GI50,SK-OV-3,15.7 µM (inactive)
same,GI50,T47D,68.1 µM (inactive)
same,GI50,SW-620,8.71 µM (inactive)
same,GI50,OVCAR-8,7.46 µM (inactive)
same,GI50,MCF7,> 100 µM (inactive)
same,GI50,NCI-H460,25.7 µM (inactive)
same,GI50,SF-539,13.9 µM (inactive)
same,GI50,LOX IMVI,> 100 µM (inactive)
same,GI50,Hs-578T,2.57 µM (inactive)
same,GI50,HCT-116,5.02 µM (inactive)
same,GI50,OVCAR-3,18.6 µM (inactive)
same,GI50,SR,> 100 µM (inactive)
same,GI50,786-0,6.31 µM (inactive)
same,GI50,MOLT-4,> 100 µM (inactive)
same,GI50,SK-MEL-5,12.2 µM (inactive)
same,GI50,M14,38.2 µM (inactive)
same,GI50,KM12,4.18 µM (inactive)
same,GI50,RPMI-8226,> 100 µM (inactive)
same,GI50,A498,7.98 µM (inactive)
same,GI50,SF-295,1.67 µM (inactive)
same,GI50,CAKI-1,> 100 µM (inactive)
same,GI50,MDA-N,> 100 µM (inactive)
same,GI50,SNB-19,8.09 µM (inactive)
same,GI50,SK-MEL-28,56.1 µM (inactive)
same,GI50,U-251,7.57 µM (inactive)
same,GI50,HOP-62,27.9 µM (inactive)
same,GI50,OVCAR-5,> 100 µM (inactive)
same,GI50,IGROV-1,> 100 µM (inactive)
same,GI50,SN12C,49.7 µM (inactive)
same,GI50,HCC 2998,26.3 µM (inactive)
same,GI50,TK-10,53.6 µM (inactive)
same,GI50,DU-145,> 100 µM (inactive)
same,GI50,HOP-92,79.3 µM (inactive)
same,GI50,MDA-MB-435,> 100 µM (inactive)
same,GI50,PC-3,> 100 µM (inactive)
same,GI50,OVCAR-4,> 100 µM (inactive)
same,GI50,NCI-H226,3.53 µM (inactive)
same,GI50,NCI-H522,> 100 µM (inactive)
same,GI50,EKVX,> 100 µM (inactive)
same,GI50,SF-268,13.3 µM (inactive)
same,GI50,Malme-3M,> 100 µM (inactive)
same,GI50,UACC-62,> 100 µM (inactive)
same,GI50,SK-MEL-2,> 100 µM (inactive)
same,GI50,ACHN,32.1 µM (inactive)
same,GI50,NCI/ADR-RES,22.1 µM (inactive)
same,GI50,UO-31,37.9 µM (inactive)
same,GI50,RXF 393,11.7 µM (inactive)
same,GI50,MDA-MB-231,24.3 µM (inactive)
same,GI50,BT-549,51.2 µM (inactive)
same,GI50,HCT-15,> 100 µM
COC(=O)c1cc2c(cc1C(=O)OC)[C@@]1(C)CCCC(C)(C)C1CC2 (stereo not given in full),GI50,NCI-H23,30.5 µM (inactive)
same,GI50,A549,19.4 µM (inactive)
same,GI50,CCRF-CEM,16.7 µM (inactive)
same,GI50,K562,13.8 µM (inactive)
same,GI50,HL-60,8.77 µM (inactive)
same,GI50,UACC-257,19.5 µM (inactive)
same,GI50,T47D,0.508 µM (active)
same,GI50,SW-620,18.7 µM (inactive)
same,GI50,OVCAR-8,30.9 µM (inactive)
same,GI50,MCF7,15 µM (inactive)
same,GI50,NCI-H460,20.3 µM (inactive)
same,GI50,SF-539,22 µM (inactive)
same,GI50,SNB-75,30 µM (inactive)
same,GI50,LOX IMVI,18.1 µM (inactive)
same,GI50,Hs-578T,17.7 µM (inactive)
same,GI50,HCT-116,17.9 µM (inactive)
same,GI50,OVCAR-3,10.2 µM (inactive)
same,GI50,SR,15.1 µM (inactive)
same,GI50,786-0,19.5 µM (inactive)
same,GI50,MOLT-4,15.1 µM (inactive)
same,GI50,HT-29,15.6 µM (inactive)
same,GI50,SK-MEL-5,16.2 µM (inactive)
same,GI50,M14,22.9 µM (inactive)
same,GI50,KM12,15.2 µM (inactive)
same,GI50,RPMI-8226,10.7 µM (inactive)
same,GI50,A498,15.6 µM (inactive)
same,GI50,SF-295,16.3 µM (inactive)
same,GI50,MDA-N,21.9 µM (inactive)
same,GI50,SNB-19,23.7 µM (inactive)
same,GI50,SK-MEL-28,26.3 µM (inactive)
same,GI50,U-251,18.4 µM (inactive)
same,GI50,HOP-62,23.8 µM (inactive)
same,GI50,OVCAR-5,18.3 µM (inactive)
same,GI50,IGROV-1,10.4 µM (inactive)
same,GI50,SN12C,19.3 µM (inactive)
same,GI50,HCC 2998,17.4 µM (inactive)
same,GI50,TK-10,19.5 µM (inactive)
same,GI50,DU-145,14.1 µM (inactive)
same,GI50,HOP-92,9.91 µM (inactive)
same,GI50,MDA-MB-435,30.2 µM (inactive)
same,GI50,PC-3,14.8 µM (inactive)
same,GI50,OVCAR-4,22.4 µM (inactive)
same,GI50,NCI-H226,17.4 µM (inactive)
same,GI50,NCI-H522,16.9 µM (inactive)
same,GI50,EKVX,13.3 µM (inactive)
same,GI50,SF-268,13.9 µM (inactive)
same,GI50,Malme-3M,1.22 µM (inactive)
same,GI50,UACC-62,12.2 µM (inactive)
same,GI50,SK-MEL-2,17.1 µM (inactive)
same,GI50,ACHN,20.7 µM (inactive)
same,GI50,NCI/ADR-RES,16.3 µM (inactive)
same,GI50,UO-31,17.8 µM (inactive)
same,GI50,RXF 393,10.1 µM (inactive)
same,GI50,MDA-MB-231,17.3 µM (inactive)
same,GI50,BT-549,28.6 µM (inactive)
same,GI50,HCT-15,17.1 µM
CCSc1nn(-c2c3ccccc3nc3ccccc23)c(=S)s1,GI50,NCI-H23,> 100 µM (inactive)
same,GI50,A549,> 100 µM (inactive)
same,GI50,CCRF-CEM,> 100 µM (inactive)
same,GI50,K562,> 100 µM (inactive)
same,GI50,HL-60,> 100 µM (inactive)
same,GI50,UACC-257,> 100 µM (inactive)
same,GI50,SK-OV-3,> 100 µM (inactive)
same,GI50,T47D,> 100 µM (inactive)
same,GI50,SW-620,> 100 µM (inactive)
same,GI50,OVCAR-8,> 100 µM (inactive)
same,GI50,MCF7,> 100 µM (inactive)
same,GI50,NCI-H460,> 100 µM (inactive)
same,GI50,SF-539,> 100 µM (inactive)
same,GI50,SNB-75,61.9 µM (inactive)
same,GI50,LOX IMVI,> 100 µM (inactive)
same,GI50,Hs-578T,> 100 µM (inactive)
same,GI50,HCT-116,> 100 µM (inactive)
same,GI50,OVCAR-3,> 100 µM (inactive)
same,GI50,SR,> 100 µM (inactive)
same,GI50,786-0,> 100 µM (inactive)
same,GI50,MOLT-4,> 100 µM (inactive)
same,GI50,HT-29,> 100 µM (inactive)
same,GI50,SK-MEL-5,> 100 µM (inactive)
same,GI50,M14,> 100 µM (inactive)
same,GI50,KM12,> 100 µM (inactive)
same,GI50,RPMI-8226,> 100 µM (inactive)
same,GI50,A498,> 100 µM (inactive)
same,GI50,SF-295,> 100 µM (inactive)
same,GI50,CAKI-1,> 100 µM (inactive)
same,GI50,MDA-N,> 100 µM (inactive)
same,GI50,SNB-19,> 100 µM (inactive)
same,GI50,SK-MEL-28,> 100 µM (inactive)
same,GI50,U-251,> 100 µM (inactive)
same,GI50,HOP-62,> 100 µM (inactive)
same,GI50,OVCAR-5,> 100 µM (inactive)
same,GI50,IGROV-1,> 100 µM (inactive)
same,GI50,SN12C,> 100 µM (inactive)
same,GI50,HCC 2998,> 100 µM (inactive)
same,GI50,TK-10,> 100 µM (inactive)
same,GI50,DU-145,> 100 µM (inactive)
same,GI50,HOP-92,> 100 µM (inactive)
same,GI50,MDA-MB-435,> 100 µM (inactive)
same,GI50,PC-3,> 100 µM (inactive)
same,GI50,OVCAR-4,> 100 µM (inactive)
same,GI50,NCI-H226,> 100 µM (inactive)
same,GI50,NCI-H522,> 100 µM (inactive)
same,GI50,EKVX,> 100 µM (inactive)
same,GI50,SF-268,> 100 µM (inactive)
same,GI50,UACC-62,> 100 µM (inactive)
same,GI50,SK-MEL-2,> 100 µM (inactive)
same,GI50,ACHN,> 100 µM (inactive)
same,GI50,NCI/ADR-RES,> 100 µM (inactive)
same,GI50,UO-31,> 100 µM (inactive)
same,GI50,RXF 393,> 100 µM (inactive)
same,GI50,MDA-MB-231,> 100 µM (inactive)
same,GI50,BT-549,> 100 µM (inactive)
same,GI50,COLO 205,> 100 µM (inactive)
same,GI50,HCT-15,> 100 µM
